{"source": "paper PMC12498136", "about": "“Synthesis and biological evaluation of novel carnosic acid derivatives with anticancer activity” (RSC Advances, 2025)", "format_in_all_cases": "cell-based", "key": {"[1]": {"system": "CDK6", "assay": "Western blot of CDK6 levels in SW480 cells", "conditions": "SW480, 6.3 μM, relative to control", "method": "(§1) SW480 cells were seeded in 6-well plates and treated as described in the previous subsection. After 24, 48 or 72 h of incubation, adherent cells were washed twice with ice-cold DPBS and incubated with lysis buffer (0.2% Triton X-100, 0.5 mM sodium deoxycholate, 1 mM Na-EDTA, 1 mM DTT, 20 mM Tris–HCl (pH 7.5), 0.5% phosphatases inhibitor cocktail, and 1% proteases inhibitor cocktail) for 30 min at 4 °C. The cells were scraped, sonicated, and centrifuged at 120 00 × g (20 min at 4 °C). […] The gels were then transferred to PVDF membranes, which were blocked with 5% skim milk in PBS-Tween-20 (0.1%) for 1 h at room temperature. Subsequently, the membranes were incubated with the primary antibodies for 30 mi at room temperature (actin) or overnight at 4 °C (CDK4, CDK6, cyclin A, Rb and SOD2/MnSOD). After incubation, the membranes were washed with PBS-Tween-20 (0.1%) and incubated with anti-mouse secondary antibody (40 min) or anti-rabbit secondary antibody (1 h) at room temperature. Finally, the membranes were washed with PBS-Tween-20 (0.1%) and treated with the Immobilon Western Chemiluminescent HRP Substrate Kit, and autoradiography was performed using an FPM-100A film processor (Fujifilm, Tokyo, Japan). western blot results were obtained from three independent experiments, except for cyclin A at 24 h (n = 2), Rb protein at 24 and 72 h (n = 2), and SOD2 (MnSOD) at 72 h (n = 2)."}, "[2]": {"system": "Rb", "assay": "Western blot of Rb levels in SW480 cells", "conditions": "SW480, 6.3 μM, 24, 48, and 72 h, relative to control", "method": "as §1"}, "[3]": {"system": "SW480 cells", "assay": "Cell proliferation assay and cell doubling time", "conditions": "6.3 μM, ln(2)/cell growth rate", "from_the_text": "Cell growth rates represent a characteristic of cell lines, indicating the rate at which the cell population size changes over time.[29] The commonly used metric for assessing the cell growth rate is the cell doubling time, which denotes the time required for a cell population to double in size. Cell doubling time can be estimated using the following formula: ln(2)/cell growth rate.[30] A time-dependent cell growth curve was constructed to elucidate the effect of compound 17 on the growth pattern of SW480 cells (Fig. 4). […] The cell concentration at each time point allowed us to determine the cell growth rate and subsequently calculate the cell doubling time. Compound 17 induced an increase in the doubling time of SW480 cells (69 h) compared to the control group (43 h). In summary, compound 17 affected the growth pattern of SW480 cells by increasing the cell doubling time, consequently decreasing the cell growth rate.\nSW480 cells (1.68 × 10^5 cells per well) were seeded in 6-well plates and incubated at 37 °C for 24 h. The cells were then treated with compound 17 (IC50 value) for 24, 48 or 72 h. […] Cell viability was determined using the Invitrogen Countess 3 Automated Cell Counter (Thermo Fisher Scientific, Waltham, MA, USA). […]"}, "[4]": {"system": "cyclin A", "assay": "Western blot of cyclin A levels in SW480 cells", "conditions": "SW480, 6.3 μM, relative to control", "method": "as §1"}, "[5]": {"system": "CDK4", "assay": "Western blot of CDK4 levels in SW480 cells", "conditions": "SW480, 6.3 μM, relative to control", "method": "as §1"}, "[6]": {"system": "HCT116 cells", "assay": "MTT cell viability assay in HCT116 cells", "method": "The MTT assay was used to assess the effect of the compounds on cell viability. […] Subsequently, the culture medium was switched with a new medium containing DMSO (control) or the compound at a specified concentration. […] The plates were then incubated for 1 h at 37 °C. After this time, the supernatant was aspirated, and the formazan crystals were dissolved in 100 μL of DMSO in each well. Relative cell viability was calculated by measuring absorbance at 570 nm using a Benchmark Plus Microplate Reader (Bio-Rad Laboratories, Hercules, CA, USA)."}, "[7]": {"system": "intracellular ROS levels in SW480 cells", "assay": "Intracellular ROS quantification assay (H2DCFDA, flow cytometry)", "conditions": "SW480, 6.3 μM", "method": "Intracellular ROS levels can be quantified using lipophilic and non-fluorescent probes, such as 2′,7′-dichlorodihydrofluorescein diacetate (H2DCFDA).[60] To assess the effect of compound 17 on intracellular ROS levels, SW480 cells were treated with compound 17, followed by incubation with the H2DCFDA probe after 24, 48, and 72 h of treatment. After, the cells were subjected to flow cytometry to quantify the fluorescence intensity of 2′,7′-dichlorofluorescein (DCF), as shown in Fig. 9. […] Both effects of compound 17 contributed to the inhibition of SW480 cell growth.\nSW480 cells were seeded at a density of 1.68 × 10^5 cells per well in 6-well plates and incubated at 37 °C for 24 h. The cells were then treated with compound 17 (IC50 value) for 24, 48, or 72 h. The adherent cells were trypsinized, washed with DPBS, collected by centrifugation, and resuspended in 1 mL of HBSS containing 50 μM H2DCFDA probe and 2 mM L-glutamine. After 45 min of incubation at 37 °C in a cell culture incubator, the cell suspensions were washed with 2 mL DPBS and collected by centrifugation. The cells were then stained with 350 μL of DPBS containing 20 μg per mL PI solution (1 mg mL^−1). Inside the cells, the H2DCFDA probe is deacetylated and undergoes oxidation in the presence of ROS, transforming into a DCF fluorescent compound. The fluorescence emitted by DCF from 1 × 10^4 PI-negative cells was measured at 520 nm using a Gallios flow cytometer (Beckman Coulter, Brea, CA, USA)."}}, "data": [{"smiles": "CC(=O)Oc1c(C(C)C)cc2c(c1OC(C)=O)[C@@]1(NC(=O)OCC(C)C)CCCC(C)(C)[C@@H]1CC2", "note": "[Compound 17, (4bR,8aS)-8,8-Dimethyl-4b-{[(2-methylpropoxy)carbonyl]amino}-2-(propan-2-yl)-4b,5,6,7,8,8a,9,10-octahydrophenanthrene-3,4-diyl diacetate]", "values": [{"measurement": "CDK6 protein level", "setting": "[1]; 24 h", "value": "significantly reduced"}, {"measurement": "CDK6 protein level", "setting": "[1]; 48 h", "value": "lower than those in the control group"}, {"measurement": "Rb protein level", "setting": "[2]", "value": "notable decrease"}, {"measurement": "cell doubling time", "setting": "[3]", "value": 69, "unit": "h"}, {"measurement": "cyclin A expression", "setting": "[4]; 24 h", "value": "decrease"}, {"measurement": "cyclin A expression", "setting": "[4]; 48 h", "value": "did not affect"}, {"measurement": "CDK4 protein level", "setting": "[5]; 24 h", "value": "significantly reduced"}, {"measurement": "CDK4 protein level", "setting": "[5]; 48 h", "value": "lower than those in the control group"}, {"measurement": "CDK4 protein level", "setting": "[5]; 72 h", "value": "reduction"}, {"measurement": "fold more active than cisplatin", "setting": "[6]; HCT116 cells, ratio of IC50 values", "value": 1.2, "unit": "fold"}, {"measurement": "IC50", "setting": "[6]; Homo sapiens, HCT-116, 72 h, read-out: IC50 HCT116", "value": "17 ± 2", "unit": "µM"}, {"measurement": "intracellular ROS levels relative to untreated cells", "setting": "[7]; 24 h (control 100%)", "value": 70, "unit": "%"}, {"measurement": "intracellular ROS levels relative to untreated cells", "setting": "[7]; 48 h (control 100%)", "value": 157, "unit": "%"}, {"measurement": "intracellular ROS levels relative to untreated cells", "setting": "[7]; 72 h (control 100%)", "value": 290, "unit": "%"}]}]}
